From US20210045986A1, “COMPOSITION FOR PREVENTION OR TREATMENT OF SKIN INFECTION” (CARESIDE CO., LTD., priority 2018, published 2021)

Assay: Precipitate generation prevention experiment of liquid formulation under accelerated storage
Assay type: physicochemical
Design: key: O: Generated; X: Non-Generated
Conditions: for Whether or not a precipitate is generated: 1.0% malic acid, 0.3% sodium borate; for Result: whether or not a precipitate is generated: chlorhexidine gluconate 0.1, terbinafine hydrochloride 0.1, ethanol 59 wt %
Text: As described above, most liquid medicines include excipients including chloride ions, and the composition of the present invention in combination with terbinafine hydrochloride may also cause precipitation. However, it may further include malic acid and sodium borate to prevent the generation of precipitates of terbinafine hydrochloride. Hereinafter, a description will be given of the precipitate generation experiments of terbinafine hydrochloride.
First, a liquid formulation containing terbinafine hydrochloride, chlorhexidine gluconate and ciclopirox olamine is prepared as shown in the following [Table 3]. Malic acid or polycarboxylic acid other than malic acid is added to the prepared liquid formulation, and the presence or absence of a precipitate is observed.
First, malic acid, citric acid, oxalic acid and tartaric acid are prepared as a polycarboxylic acid such as malic acid. To the liquid formulation prepared in the above [Table 3], polycarboxylic acid was added in 0.1, 0.3, 0.5, 0.7, 1.0, 2.0, 3.0, 4.0, 5.0 (w/v %), respectively, and then chlorhexidine gluconate is adjusted to a stable pH of 5.0 using a pH adjusting agent. And, the liquid formulations were stored under accelerated conditions of 40±2° C. and relative humidity of 75±5% to observe the presence or absence of precipitates. […]
Next, after adding 1.0% of malic acid and 0.3% of sodium borate, an experiment is performed to determine whether precipitates are generated by adjusting the content of chlorhexidine gluconate, terbinafine hydrochloride, and ciclopirox olamine. The experimental results are shown in the following [Table 6] and [Table 7], and experiments were performed on whether or not precipitates of the liquid formulations prepared without adding malic acid and sodium borate are generated were shown in [Table 8].

[1] = concentration of the ingredient 0.1 %
[2] = concentration of the ingredient 0.3 %
[3] = concentration of the ingredient 0.5 %
[4] = concentration of the ingredient 1.0 %
[5] = concentration of the ingredient 2.0 %
[6] = concentration of the ingredient 3.0 %
[7] = concentration of the ingredient 4.0 %
[8] = concentration of the ingredient 5.0 %
[9] = concentration of the ingredient 6.0 %

Whether or not a precipitate is generated [1]	Whether or not a precipitate is generated [2]	Whether or not a precipitate is generated [3]	Whether or not a precipitate is generated [4]	Whether or not a precipitate is generated [5]	Whether or not a precipitate is generated [6]	Whether or not a precipitate is generated [7]	Whether or not a precipitate is generated [8]	Whether or not a precipitate is generated [9]	Compound	also measured
X	X	X	X	X	X	X	O	O	N=C(NCCCCCCNC(=N)NC(=N)Nc1ccc(Cl)cc1)NC(=N)Nc1ccc(Cl)cc1 [Chlorhexidine Gluconate, chlorhexidine gluconate]	
									Cc1cc(C2CCCCC2)n(O)c(=O)c1 [Ciclopirox Olamine, 2(1H)-Pyridinone, 6-cyclohexyl-1-hydroxy-4-methyl-compound with 2-aminoethanol (1:1)]	Result: whether or not a precipitate is generated (ciclopirox olamine 0.1 wt %, malic acid and sodium borate, pH 5.3~5.7): X; Result: whether or not a precipitate is generated (ciclopirox olamine 0.1 wt %, without malic acid and sodium borate, pH adjustment x): O; Result: whether or not a precipitate is generated (ciclopirox olamine 0.2 wt %, without malic acid and sodium borate, pH adjustment x): O; Result: whether or not a precipitate is generated (ciclopirox olamine 0.3 wt %, malic acid and sodium borate, pH 5.3~5.7): X; Result: whether or not a precipitate is generated (ciclopirox olamine 0.3 wt %, without malic acid and sodium borate, pH adjustment x): O; Result: whether or not a precipitate is generated (ciclopirox olamine 0.4 wt %, without malic acid and sodium borate, pH adjustment x): O; Result: whether or not a precipitate is generated (ciclopirox olamine 0.5 wt %, malic acid and sodium borate, pH 5.3~5.7): X; Result: whether or not a precipitate is generated (ciclopirox olamine 0.5 wt %, without malic acid and sodium borate, pH adjustment x): O; Result: whether or not a precipitate is generated (ciclopirox olamine 0.6 wt %, without malic acid and sodium borate, pH adjustment x): O; Result: whether or not a precipitate is generated (ciclopirox olamine 0.7 wt %, without malic acid and sodium borate, pH adjustment x): O; Result: whether or not a precipitate is generated (ciclopirox olamine 0.8 wt %, without malic acid and sodium borate, pH adjustment x): O; Result: whether or not a precipitate is generated (ciclopirox olamine 0.9 wt %, without malic acid and sodium borate, pH adjustment x): O; Result: whether or not a precipitate is generated (ciclopirox olamine 1.0 wt %, malic acid and sodium borate, pH 5.3~5.7): X; Result: whether or not a precipitate is generated (ciclopirox olamine 2.0 wt %, malic acid and sodium borate, pH 5.3~5.7): X; Result: whether or not a precipitate is generated (ciclopirox olamine 3.0 wt %, malic acid and sodium borate, pH 5.3~5.7): X; Result: whether or not a precipitate is generated (ciclopirox olamine 4.0 wt %, malic acid and sodium borate, pH 5.3~5.7): X; Result: whether or not a precipitate is generated (ciclopirox olamine 5.0 wt %, malic acid and sodium borate, pH 5.3~5.7): X; Result: whether or not a precipitate is generated (ciclopirox olamine 6.0 wt %, malic acid and sodium borate, pH 5.3~5.7): X
X	X	X	X	X	O	O	O	O	CN(C/C=C/C#CC(C)(C)C)Cc1cccc2ccccc12.Cl [Terbinafine hydrochloride, [(2E)-6,6-dimethylhept-2-en-4-yn-1-yl] (methyl) (naphthalen-1-ylmethyl)aminehydrochloride]	
